The text below walks through data of US8859573B2, “Pyrimidinone and pyridinone compounds for use in the treatment of diseases or conditions mediated by Lp-PLA2” (Glaxo Group Limited, priority 2010, dated 2014).

Structures can show the parent of a compound that is named as a salt. Where only a bound is given, the exact number is not on record here.

The assay concerns the target T1, Lp-PLA2 from plasma (Homo sapiens, UniProt Q13093).
T1 construct: from tissue; host or cells: pooled human plasma
T1 sequence (Q13093 22-441): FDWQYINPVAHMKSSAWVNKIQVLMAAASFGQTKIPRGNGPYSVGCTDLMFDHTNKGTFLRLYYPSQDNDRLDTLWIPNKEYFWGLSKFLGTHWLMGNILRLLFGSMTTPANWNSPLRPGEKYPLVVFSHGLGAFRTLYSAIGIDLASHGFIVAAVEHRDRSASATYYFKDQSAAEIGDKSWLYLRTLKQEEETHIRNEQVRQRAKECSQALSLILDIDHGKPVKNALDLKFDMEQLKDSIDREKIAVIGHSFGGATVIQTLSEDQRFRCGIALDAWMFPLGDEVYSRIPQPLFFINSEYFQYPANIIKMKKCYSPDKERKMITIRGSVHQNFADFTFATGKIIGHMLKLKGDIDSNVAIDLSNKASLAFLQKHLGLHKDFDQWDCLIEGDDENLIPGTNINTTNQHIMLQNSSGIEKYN
Put plainly: Lp-PLA2 human plasma assay (Thio-PAF assay). As to conditions: pooled human plasma; read-out: pIC50 values in the thio-PAF assay (converted). The format is biochemical. From the text: (3) Lipoprotein-Associated Phospholipase A2 (Lp-PLA2) Human Plasma Assay (Also Referred to as “Thio-PAF Assay”)
The human plasma assay utilizes a thioester analog of PAF (phosphatidylcholine), where hydrolysis yields to the formation of a phospholipid containing a free thiol group. The amount of thiol is quantitated continuously by reacting with CPM (7-diethylamino-3-(4′-maleimidylphenyl)-4-methylcoumarin), a maleimide which increases in fluoresence after Michael addition of thiols. This assay may detect the activity of Lp-PLA2 from plasma, as determined by specific inhibition by Lp-PLA2 inhibitors.
The thio-PAF assay was run as a quenched 15 μL assay. Compounds source plate was prepared by making 1:3 (by volume) serial dilution of the compounds into pure DMSO on 384-well microplate. 0.01 μL of compounds on compound source plate were transferred to 384 well Greiner 784076 (black) low-volume plates by ECHO liquid dispenser. 8 μL pooled human plasma, which was previously aliquoted and frozen, was added. Plates were centrifuged for 10 sec at 500 rpm. After 30 minutes preincubation, 2 μL of substrate (2.5 mM thio-PAF, 3.2 mM NEM (N-ethylmaleimide) [made fresh daily in DMSO], and 32 μM CPM [from a DMSO stock] in assay buffer of 50 mM HEPES, pH7.4, 150 mM NaCl, 1 mM CHAPS was added to 384 well Greiner 784076 (black) low-volume plates by BRAVO liquid handling station. Plates were centrifuged for 10 sec at 500 rpm. Plate was covered to protect from light and incubated for 2 min at room temperature. Reaction was quenched with 5 μL of 5% aqueous trifluoroacetic acid (TFA). Plates were covered to protect from light and incubated for 40 min at room temperature. Plates were read at ex: 380/em: 485 using-Envision microplate reader. PIC50 data, curve and QC analysis was conducted by using XLFit module in Excel.

Turning to `N#Cc1cc(COc2ccn(Cc3ccncc3)c(=O)n2)ccc1Oc1ccc(Cl)c(C(F)(F)F)c1` [Example 2, 2-{[4-Chloro-3-(trifluoromethyl)phenyl]oxy}-5-({[2-oxo-1-(4-pyridinylmethyl)-1,2-dihydro-4-pyrimidinyl]oxy}methyl)benzonitrile trifluoroacetate], the IC50 was no more than 100 nM.
For `N#Cc1cc(COc2cc[nH]c(=O)n2)ccc1Oc1ccc(Cl)c(C(F)(F)F)c1` [Example 3, 2-(4-Chloro-3-(trifluoromethyl)phenoxy)-5-(((2-oxo-2,3-dihydropyrimidin-4-yl)oxy)methyl)benzonitrile], the IC50 was greater than 10000 nM.
Regarding `Cn1cc(Cn2ccc(OCc3ccc(Oc4ccc(Cl)c(C(F)(F)F)c4)c(C#N)c3)nc2=O)cn1` [Example 6, 2-{[4-Chloro-3-(trifluoromethyl)phenyl]oxy}-5-[({1-[(1-methyl-1H-pyrazol-4-yl)methyl]-2-oxo-1,2-dihydro-4-pyrimidinyl}oxy)methyl]benzonitrile], the IC50 was no more than 100 nM.
With `N#Cc1cc(CCOc2ccn(Cc3cccnc3)c(=O)n2)ccc1Oc1ccc(Cl)c(C(F)(F)F)c1` [Example 7, 2-{[4-Chloro-3-(trifluoromethyl)phenyl]oxy}-5-(2-{[2-oxo-1-(3-pyridinylmethyl)-1,2-dihydro-4-pyrimidinyl]oxy}ethyl)benzonitrile trifluoroacetate], the IC50 was no more than 100 nM.
To `O=c1nc(OCCc2ccc(Oc3ccc(Cl)c(C(F)(F)F)c3)cc2)ccn1CCc1cccnc1` [Example 13, 4-{[2-(4-{[4-Chloro-3-(trifluoromethyl)phenyl]oxy}phenyl)ethyl]oxy}-1-[2-(3-pyridinyl)ethyl]-2 (1H)-pyrimidinone trifluoroacetate] belongs no more than 1000 nM; to `O=c1nc(OCc2ccc(Oc3ccc(Cl)c(C(F)(F)F)c3)cn2)ccn1Cc1cccnc1` [Example 14, 4{[(5-{[4-Chloro-3-(trifluoromethyl)phenyl]oxy}-2-pyridinyl)methyl]oxy}-1-(3-pyridinylmethyl)-2(1H)-pyrimidinone], no more than 100 nM.
Then `Cn1cc(Cn2ccc(OCc3ccc(Oc4ccc(Cl)c(C(F)(F)F)c4)cn3)nc2=O)cn1` [Example 15, 4-{[(5-{[4-Chloro-3-(trifluoromethyl)phenyl]oxy}-2-pyridinyl)methyl]oxy}-1-[(1-methyl-1H-pyrazol-4-yl)methyl]-2(1H)-pyrimidinone], with no more than 100 nM.
`Cn1cc(Cn2ccc(OCCc3ccc(Oc4ccc(Cl)c(C(F)(F)F)c4)cn3)nc2=O)cn1` [Example 16, 4-{[2-(5-{[4-Chloro-3-(trifluoromethyl)phenyl]oxy}-2-pyridinyl)ethyl]oxy}-1-[(1-methyl-1H-pyrazol-4-yl)methyl]-2(1H)-pyrimidinone]: the IC50 was no more than 100 nM.
To `N#Cc1cc(CNc2ccn(Cc3cccnc3)c(=O)n2)ccc1Oc1ccc(Cl)c(C(F)(F)F)c1` [Example 19, 2-{[4-Chloro-3-(trifluoromethyl)phenyl]oxy}-5-({[2-oxo-1-(3-pyridinylmethyl)-1,2-dihydro-4-pyrimidinyl]amino}methyl)benzonitrile] belongs no more than 100 nM; to `Cn1cc(Cn2ccc(CCc3ccc(Oc4cccc(C(F)(F)F)c4)c(C#N)c3)nc2=O)cn1` [Example 20, 5-(2-{1-[(1-Methyl-1H-pyrazol-4-yl)methyl]-2-oxo-1,2-dihydro-4-pyrimidinyl}ethyl)-2-{[3-(trifluoromethyl)phenyl]oxy}benzonitrile], no more than 1000 nM.
To `Cn1cc(Cn2ccc(OCc3ccc(Oc4ccc(Cl)c(C(F)(F)F)c4)c(C#N)c3)cc2=O)cn1` [Example 22, 2-{[4-Chloro-3-(trifluoromethyl)phenyl]oxy}-5-[({1-[(1-methyl-1H-pyrazol-4-yl)methyl]-2-oxo-1,2-dihydro-4-pyridinyl}oxy)methyl]benzonitrile] belongs no more than 1000 nM.
Consider `Cn1cc(Cn2ccc(OCCc3ccc(Oc4ccc(Cl)c(C(F)(F)F)c4)cc3)cc2=O)cn1` [Example 24, 4-{[2-(4-{[4-Chloro-3-(trifluoromethyl)phenyl]oxy}phenyl)ethyl]oxy}-1-[(1-methyl-1H-pyrazol-4-yl)methyl]-2(1H)-pyridinone], for which the IC50 was no more than 1000 nM.
In the case of `Cn1cc(Cn2cc(F)c(OCCc3ccc(Oc4ccc(Cl)c(C(F)(F)F)c4)cc3)nc2=O)cn1` [Example 29, 4-{[2-(4-{[4-Chloro-3-(trifluoromethyl)phenyl]oxy}phenyl)ethyl]oxy}-5-fluoro-1-[(1-methyl-1H-pyrazol-4-yl)methyl]-2(1H)-pyrimidinone], the IC50 was no more than 100 nM.
In the case of `Cn1cc(Cn2cc(Cl)c(OCCc3ccc(Oc4ccc(Cl)c(C(F)(F)F)c4)cc3)nc2=O)cn1` [Example 30, 5-chloro-4-{[2-(4-{[4-Chloro-3-(trifluoromethyl)phenyl]oxy}phenyl)ethyl]oxy}-1-[(1-methyl-1H-pyrazol-4-yl)methyl]-2(1H)-pyrimidinone], the IC50 is no more than 100 nM.
To `COc1ncc(Cn2cc(F)c(OCCc3cnc(Oc4ccc(Cl)c(C(F)(F)F)c4)c(F)c3)nc2=O)cn1` [Example 34, 4-(2-(6-(4-chloro-3-(trifluoromethyl)phenoxy)-5-fluoropyridin-3-yl)ethoxy)-5-fluoro-1-((2-methoxypyrimidin-5-yl)methyl)pyrimidin-2(1H)-one] belongs no more than 100 nM; to `COc1ncc(Cn2cc(F)c(OCCc3ccc(Oc4ccc(Cl)c(C(F)(F)F)c4)cc3)nc2=O)cn1` [Example 36, 4-(4-(4-chloro-3-(trifluoromethyl)phenoxy)phenethoxy)-5-fluoro-1-((2-methoxypyrimidin-5-yl)methyl)pyrimidin-2(1H)-one], no more than 100 nM.
Then `COc1ncc(Cn2cc(Cl)c(OCCc3cnc(Oc4ccc(F)c(C(F)(F)F)c4)c(F)c3)nc2=O)cn1` [Example 37, 5-chloro-4-(2-(5-fluoro-6-(4-fluoro-3-(trifluoromethyl)phenoxy)pyridin-3-yl)ethoxy)-1-((2-methoxypyrimidin-5-yl)methyl)pyrimidin-2(1H)-one], with no more than 100 nM; and `Cn1cc(Cn2cc(Cl)c(OCCc3cnc(Oc4ccc(F)c(C(F)(F)F)c4)c(F)c3)nc2=O)cn1` [Example 38, 5-chloro-4-(2-(5-fluoro-6-(4-fluoro-3-(trifluoromethyl)phenoxy)pyridin-3-yl)ethoxy)-1-((1-methyl-1H-pyrazol-4-yl)methyl)pyrimidin-2(1H)-one], with no more than 100 nM.
To `Cn1cc(Cn2cc(F)c(OCCc3ccc(Oc4ccc(F)c(C(F)(F)F)c4)nc3)nc2=O)cn1` [Example 39, 5-fluoro-4-(2-(6-(4-fluoro-3-(trifluoromethyl)phenoxy)pyridin-3-yl)ethoxy)-1-((1-methyl-1H-pyrazol-4-yl)methyl)pyrimidin-2(1H)-one] belongs no more than 100 nM; to `Cn1cc(Cn2cc(F)c(OCCc3ccc(Oc4ccc(Cl)c(C(F)(F)F)c4)nc3)nc2=O)cn1` [Example 40, 4-(2-(6-(4-chloro-3-(trifluoromethyl)phenoxy)pyridin-3-yl)ethoxy)-5-fluoro-1-((1-methyl-1H-pyrazol-4-yl)methyl)pyrimidin-2(1H)-one], no more than 100 nM.
On to `Cn1cc(Cn2cc(F)c(OCCc3cnc(Oc4ccc(F)c(C(F)(F)F)c4)c(F)c3)nc2=O)cn1` [Example 42, 5-fluoro-4-(2-(5-fluoro-6-(4-fluoro-3-(trifluoromethyl)phenoxy)pyridin-3-yl)ethoxy)-1-((1-methyl-1H-pyrazol-4-yl)methyl)pyrimidin-2(1H)-one], for which the IC50 was no more than 100 nM.
To `COc1ncc(Cn2cc(F)c(OCCc3cnc(Oc4ccc(F)c(C(F)(F)F)c4)c(F)c3)nc2=O)cn1` [Example 43, 5-fluoro-4-(2-(5-fluoro-6-(4-fluoro-3-(trifluoromethyl)phenoxy)pyridin-3-yl)ethoxy)-1-((2-methoxypyrimidin-5-yl)methyl)pyrimidin-2(1H)-one] belongs no more than 100 nM; to `Cn1cc(Cn2cc(Cl)c(OCCc3ccc(Cc4ccc(Cl)c(C(F)(F)F)c4)cc3)nc2=O)cn1` [Example 44, 5-chloro-4-(4-(4-chloro-3-(trifluoromethyl)benzyl)phenethoxy)-1-((1-methyl-1H-pyrazol-4-yl)methyl)pyrimidin-2(1H)-one], no more than 100 nM; to `CCn1cc(F)c(OCCc2ccc(Oc3ccc(Cl)c(C(F)(F)F)c3)nc2)nc1=O` [Example 52, 4-(2-(6-(4-chloro-3-(trifluoromethyl)phenoxy)pyridin-3-yl)ethoxy)-1-ethyl-5-fluoropyrimidin-2(1H)-one], no more than 1000 nM.
